The values below come from PubChem BioAssay AID1259427 (Fisher Drug Discovery Resource Center, 2018).

The source made the active and inactive calls.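 How the source made its calls: active means EC50 at or below a set limit, with no effect in the paired counter-screen assay; inactive means the rest.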 Some results are limits rather than exact numbers.

This assay deals with Aedes aegypti neuropeptide Y-like receptor 7 (NPYLR7). Description: NPYLR7 activation potency in cells – cell-based, Aedes aegypti, hit validation, mosquito biting behavior, confirmation (AID 1259427).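 Further: potency of agonists that activate the receptor and raise the calcium signal.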 As to conditions: HEK293T NPYLR7/Galpha15/GCaMP6s, calcium fluorescence.

The EC50 is the concentration at which the effect is half-maximal. As for `CCc1nn(C(C)C(=O)NC(C)CCc2ccco2)c(=O)c2cc3occc3n12` (stereo unspecified), the EC50 result is “inactive”.

Turning to `CC1CC2(C)Oc3ccccc3C3OCC1(CO)C(C)C32` (stereo unspecified), the EC50 was > 20 µM (inactive).

`CC(C)(C)NCC(O)c1ccc(O)c(CO)c1` (stereo unspecified): the EC50 was > 20 µM (inactive).

For `CC1(C)OC2OC(C(O)c3cc(O)c4c(c3O)C(=O)c3ccccc3C4=O)C(C)(O)C2O1` (stereo unspecified), the EC50 entry was “inactive”.

Regarding `O[C@@H]1CN(Cc2ccncc2Cl)CC[C@H]1c1ccc2c(c1)OCO2`, the EC50 was > 20 µM (inactive).

Turning to `Cc1cc(O)c(CN2CCN(C)CC2)c2c1C(=O)/C(=C/c1cccs1)O2`, the EC50 is > 20 µM (inactive).

`O=C1NC(c2ccc3c(c2)OCO3)C(C(=O)c2ccccc2)C(O)(C(F)(F)F)N1` (stereo unspecified): the EC50 is > 20 µM (inactive).

Consider `CNCC(O)c1ccc(O)c(O)c1` (stereo unspecified), for which the EC50 entry is “inactive”.

Consider `CSc1nnc2c(n1)OC(c1ccc(OC(=O)c3ccc(Br)cc3)cc1)Nc1ccccc1-2` (stereo unspecified), for which the EC50 was > 20 µM (inactive).

For `COC(=O)c1cc(N)c(/C=C/c2cccs2)s1`, the EC50 entry was “inactive”.

On to `NC(=O)CN1c2cccc3cccc(c23)S1(=O)=O`, for which the EC50 was > 20 µM (inactive).

Turning to `Cc1ccc(CNC(=O)NC(c2ccc3c(c2)OCCCO3)C(C)C)cc1F` (stereo unspecified), the EC50 was > 20 µM (inactive).

As to `CN(Cc1ccccc1)c1cc(Oc2cccc(Cl)c2)ncn1`, the EC50 was > 20 µM (inactive).

As for `O=C(C1=NN(c2ccccc2)C2C(=O)N(c3ccccc3)C(=O)C12)c1ccccc1` (stereo unspecified), the EC50 is > 20 µM (inactive).

`CC(C)N=c1c([N+](=O)[O-])nn(-c2ccc(Cl)cc2)n1O`: the EC50 is > 20 µM (inactive).

Regarding `CN1C(=S)N(CCCN2CCOCC2)C(=O)/C1=C/c1ccc(N(C)C)cc1`, the EC50 was > 20 µM (inactive).

Take `O=C1OC2(c3cc(Br)c(O)cc3Oc3c2cc(Br)c(O)[c]3[Hg])c2ccccc21` (stereo unspecified): the EC50 was < 0.039 µM (inactive).

Take `CCn1c(=O)c2c(nc(/C=C/c3ccc(OC)c(OC)c3)n2C)n(CC)c1=O`: the EC50 was > 20 µM (inactive).

Take `N#Cc1cc2cc(Cl)cc(Cl)c2oc1=O`: the EC50 entry was “inactive”.

On to `Nc1nc(Cl)nc2c1ncn2[C@@H]1O[C@H](CO)[C@@H](O)[C@H]1O`, for which the EC50 entry was “inactive”.

Consider `Nc1c2c(nc3sc4c(c13)CCCC4)CCCCC2`, for which the EC50 is > 20 µM (inactive).

As for `Cc1ccc(Cl)c(Oc2cc(N3CCN(C(=O)c4ccc(Cl)c(Cl)c4)CC3)ncn2)c1`, the EC50 was > 20 µM (inactive).

Take `O=C1/C(=C/c2cc3ccccc3o2)Oc2c1ccc(O)c2CN1CCN(CCO)CC1`: the EC50 result is “inactive”.

With `COc1ccc(Cl)cc1NC(=O)/C(C#N)=C/c1coc2ccc(C)cc2c1=O`, the EC50 was > 20 µM (inactive).

Regarding `COc1ccc(-c2cccc(-c3ccc(NC(=O)c4oc5ccccc5c4C)cc3)n2)cc1`, the EC50 was > 20 µM (inactive).

In the case of `CCN(CC)CC[n+]1c(C)cc(C=C2Sc3ccccc3N2C)cc1C`, the EC50 was > 20 µM (inactive).

`CC(C)NCC(O)c1ccc(O)c(O)c1` (stereo unspecified): the EC50 was > 20 µM (inactive).

In the case of `CCOCCCN1C(=O)C(=Cc2ccccc2O)NC1=S`, the EC50 result is “inactive”.

Take `O=C1CSC(=S)N1N=Cc1cc(Br)c(O)c(Br)c1`: the EC50 entry was “inactive”.

Consider `CCOC(=O)c1c(-c2ccccc2)csc1N=Cc1nc(-c2ccco2)oc1O`, for which the EC50 is > 20 µM (inactive).

Consider `COc1ccc(S(=O)(=O)NCC2CCCN(C(=O)CSc3ccccc3)C2)cc1` (stereo unspecified), for which the EC50 is 11.3 µM.

As for `O=c1nc2sc3[nH]c(=O)sc3cc-2s1`, the EC50 was < 0.039 µM (inactive).

For the compound `COc1ccc(Cl)cc1Nc1nnc(-c2cc3c(ccc4ccccc43)oc2=O)s1`, the EC50 was > 20 µM (inactive).

For the compound `N#CC(C#N)=C1C=C2C=C(N3CCN(Cc4ccccc4)CC3)CCC2CC1` (stereo unspecified), the EC50 is > 20 µM (inactive).

`N#Cc1cccc(C(=O)N2CCN(C(c3ccccc3)c3ccc(Br)cc3)CC2)c1` (stereo unspecified): the EC50 was > 20 µM (inactive).

Consider `Cc1[nH]c(/C=C2\C(=O)Nc3ccccc32)c(C)c1CCC(=O)O`, for which the EC50 was < 0.039 µM (inactive).
